Test results as given in patent publication US9572788B2, “Cell permeable inhibitors of anaphase promoting complex” (President and Fellows of Harvard College, priority 2014, dated 2017).

How the values were obtained:
hTERT-RPE1 H2B-GFP cells = test: Live imaging of mitotic duration in hTERT-RPE1 H2B-GFP cells; format: cell-based, human
Procedure: FIG. 18A is a graph and table showing that proTAME induces a mitotic delay in hTERT-RPE1 H2B-GFP cells. Asynchronous hTERT-RPE1 H2B-GFP cells were treated with 0.06% DMSO, 6 μM proTAME or 12 μM proAAME. Cells were imaged at 12 min interval. Cumulative frequency curves of mitotic duration and cell fate distribution are shown.
The imaging plate was mounted onto a motorized stage (Prior ProScan II) on a Nikon TE2000E PFS inverted microscope fitted with an incubation chamber maintained at 37° C. and supplied with 5% CO2. A 20× Plan Apo 0.75 NA or 40× Plan Fluor 0.75 NA objective lens was used as indicated and images were collected with 2×2 binning. DIC or GFP fluorescent images were taken every 12 min (unless otherwise specified) for 36 h with a Hamamatsu ORCA cooled CCD camera and Nikon Elements Software. TIFF files of each image were exported from Elements and used to build stacks and Quicktime movies with Metamorph imaging software (Molecular Devices). For manual analysis, mitotic duration is counted as the time between the first frame of chromosome condensation and the frame of chromosome segregation (anaphase) or decondensation (mitotic exit in the presence of nocodazole) or cell death (chromosomes shrinking to a small bright dot).

U2OS-H2B-GFP cells = test: Fluorescence live cell imaging with survival (Cox) analysis, U2OS; format: cell-based, human; settings: proTAME 12 μM
Procedure: Mitotic duration and cell fate were determined by manual inspection of the movies and plotted as Kaplan-Meier curves. The hatch marks on the Kaplan-Meier curved indicate mitotic duration endpoints of censored cells. Includes the combined results of five independent experiments. […] Pairwise comparison between proTAME and proTAME+apcin-M tested using a Cox proportional hazards model stratified by date, using data from only the experimental blocks in which both proTAME and proTAME+apcin were tested.
Movies were manually analyzed using Nikon Elements software or Image J.
Plates were inserted into a covered chamber supplied with humidified 5% CO2 and mounted onto a motorized microscope stage (Prior Scientific). […] A Hamamatsu ORCA cooled CCD camera collected the images with 2×2 binning using Nikon Elements software (version 3.0). Movies were manually analyzed using Nikon Elements software or ImageJ. Mitotic duration was defined as the time from nuclear envelope breakdown until anaphase, in the case of normal mitosis, or until exit from prolonged mitosis as indicated by cytoplasmic blebbing accompanied by changes in chromatin as detected by H2B-GFP.
The Cox proportional hazards model is a semiparameteric approach to modeling time-to-event data, in which covariates are assumed to have constant proportional effects over time relative to a baseline hazard function that can take any form. In this case, stratification on “person” (the individual who analyzed the movie) and “date” (the date the assay was run) allow the baseline hazard function to differ across experimental blocks, but assume a fixed effect of treatment across experimental blocks. The model is thus: hi(t|Z=j)=hj(t)exp(β1×apcini+β2×apcinMi+β3×proTAMEi+β4×proTAMEi:apcinMi+β5×proTAMEi:apcini), j=1 . . . […] This model was fit separately to cells treated with control siRNA or Mad2 siRNA. All statistical analysis was carried out in R 3.0.0 using the functions available as part of the survival package.

HeLa cells [1] = test: ProTAME activation analysis (LC/MS) in HeLa cells; format: in vitro ADME, human; settings: 20 μM
Procedure: ProTAME was added to interphase Xenopus extract at 50 μM or cell growth media at 20 μM. For interphase extract, 800 μl of sample was collected at 0 min, 10 min, 20 min and 30 min after addition of proTAME and diluted to 8 ml with XB. For cell culture, approximately 800,000 cells were collected at 1 h, 2 h and 3 h after addition of proTAME and lysed in 400 μl lysis buffer as described above and subsequently diluted to 4 ml with lysis buffer. The diluted extract or cell lysate was extracted with 1.5 volume of ethyl acetate. The extracts were dried in vacuo and the dry extracts were resuspended in 200 μl of methanol for LC/MS analysis. LC/MS data were obtained using an Agilent series 1200 LC/6130 MS system with a reversed-phase C18 column (Phenomenex Luna C18(2), 4.6 mm×100 mm, 5 μm) and a CH3CN/H2O gradient solvent system beginning with 10% aqueous CH3CN and ending at 100% CH3CN at 20 min. 10 μl of each sample was injected for each analysis.

APC = molecular target: T1, APC (Homo sapiens, UniProt P30260); test: Cdc20/Cdh1 binding assay in HeLa cells (APC immunoprecipitation); format: cell-based
T1 construct: endogenous in cells; host or cells: HeLa cells (synchronised; some with Mad2/BubR1 siRNA and cyclin B1-delta107 adenovirus)
T1 sequence (P30260 whole entry): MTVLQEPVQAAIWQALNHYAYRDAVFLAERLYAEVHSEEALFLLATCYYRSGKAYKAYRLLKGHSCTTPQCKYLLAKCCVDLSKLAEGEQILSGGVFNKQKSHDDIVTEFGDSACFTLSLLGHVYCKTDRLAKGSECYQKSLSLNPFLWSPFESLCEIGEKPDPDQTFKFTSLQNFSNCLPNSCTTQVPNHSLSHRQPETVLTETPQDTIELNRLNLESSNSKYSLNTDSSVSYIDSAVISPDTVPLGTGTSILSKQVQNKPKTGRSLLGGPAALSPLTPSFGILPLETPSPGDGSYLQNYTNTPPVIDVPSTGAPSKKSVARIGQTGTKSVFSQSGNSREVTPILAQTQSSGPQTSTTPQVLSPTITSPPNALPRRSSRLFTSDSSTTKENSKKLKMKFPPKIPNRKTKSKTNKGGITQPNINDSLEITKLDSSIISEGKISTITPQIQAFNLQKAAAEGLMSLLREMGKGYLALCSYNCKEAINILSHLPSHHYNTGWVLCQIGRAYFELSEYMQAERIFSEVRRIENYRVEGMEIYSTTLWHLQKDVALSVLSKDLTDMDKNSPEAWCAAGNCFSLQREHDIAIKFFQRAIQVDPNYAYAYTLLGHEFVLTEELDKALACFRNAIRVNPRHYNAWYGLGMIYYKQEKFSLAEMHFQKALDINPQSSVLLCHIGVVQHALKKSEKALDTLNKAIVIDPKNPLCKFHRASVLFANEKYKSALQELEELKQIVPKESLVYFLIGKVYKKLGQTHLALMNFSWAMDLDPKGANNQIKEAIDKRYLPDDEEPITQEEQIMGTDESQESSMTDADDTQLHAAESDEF
Procedure: HeLa cells in DMEM 10% FBS were plated in T25 flasks at 20% confluence one day prior to the experiment. They were then synchronized by a double thymidine block (18 h for the first block, 8 h release and another 18 h for the second block, thymidine concentration: 2 mM). For analysis of Cdh1 binding, cells were released into […] from the second thymidine block for 13 h and then washed into fresh medium. Six h later, cells were treated with 12 μM proTAME or proAAME or 0.06% DMSO for 2 h and then collected by trypin digestion. For analysis of Cdc20 binding, cells were transfected with indicated siRNAs during the first release from thymidine block after two washes with DPBS (CellGro 21-030-CV) and addition of 6.3 ml OptiMEM. A volume (79 μl) of 20 μl Control siRNA#3 or a 1:1 mix of 20 μl MAD2 siRNA and BubR1 siRNA (Dharmacon D-004101-01, 5′-[…]-3′ (SEQ ID NO: 11)) was mixed in 1381 μl OptiMEM in a tube, 23.7 μl OligoFectamine were mixed with 94.1 μl OptiMEM in a second tube. After 5 min incubation at RT, the tubes contents were mixed and siRNA-reagent complexes were allowed to form for 20 min at RT. The transfection mixes were added to cells in OptiMEM and FBS was added to 10% after 5 h transfection. Cyclin B1-Δ107 expressing adenovirus (1:100) was added at the start of the second thymidine block and kept in the medium for all subsequent steps. Cells were treated at 10 h after release with 100 nM okadaic acid, 25 μg/ml cycloheximide and 12 μM proTAME as indicated. After 2 h treatment, cells were collected by mitotic shake-off. Cell pellets were washed twice with DPBS and flash-frozen with liquid nitrogen and stored at −80° C. until use. Cell lysis and APC immunoprecipitation were performed as described above.

HeLa cells [2] = test: Endogenous APC substrate levels by immunoblot in synchronized HeLa cells; format: cell-based, human; settings: 12 μM
Procedure: FIG. 1E is a series of photographs of gel electrophoresis analysis showing that proTAME stabilizes endogenous APC substrates. HeLa cells were synchronized by double thymidine procedure and released into compounds (12 μM). Protein levels were measured by immunoblot.

[3] = Fig S4A, asynchronous hTERT-RPE1 cells, proAAME 12 μM, proTAME 6 μM

COC(=O)[C@H](CCCN/C(=N\C(=O)OCOC(=O)Cc1ccccc1)NC(=O)OCOC(=O)Cc1ccccc1)NS(=O)(=O)c1ccc(C)cc1 [proTAME]
Average mitotic duration (hTERT-RPE1 H2B-GFP cells; [3]): 819.0 min | Median mitotic duration (hTERT-RPE1 H2B-GFP cells; [3]): 522 min | Median mitotic duration (hTERT-RPE1 H2B-GFP cells; asynchronous hTERT-RPE1, 6 μM): over 8 h | Median mitotic duration (U2OS-H2B-GFP cells; Table 7, apcin or apcin-M 25 μM): 180 | % rate of mitotic exit (U2OS-H2B-GFP cells; relative to DMSO control, Cox model, apcin/apcin-M 25 μM): 3.63% | Activation of prodrug (HeLa cells [1]): activated efficiently in HeLa cells | Dissociation of Cdc20 from the APC (APC; HeLa arrested by nondegradable cyclin B, 12 μM): induced significant dissociation of Cdc20 from the APC, but only if SAC proteins were depleted by RNAi | Cdh1 association with the APC (APC; HeLa cells in G1, 12 μM): inhibited Cdh1 association with the APC | Reduction in Cdc20 binding to the APC (APC; HeLa, 12 μM plus 10 μM MG132 for 2 hours): 30% | Stabilization of endogenous cyclin B and securin (HeLa cells [2]): dramatically stabilized
